Experiment [1] concerns xenograft models of various cancer types. Also on record: method as in PMID 19369091, PMID 14981513, PMID 18160664. The following applies: cited from earlier work.
A further experiment relates to PC-3 cells. In words: MTT cytotoxicity/anti-proliferation assay, PC-3. It counts as cell-based. The following applies: Homo sapiens; for IC50: PC-3, 72 h; for inhibition at 25 µM: PC-3, 25 µM; for inhibition at 25 µM / inhibition at 50 µM: 72 h; for inhibition at 50 µM: PC-3, 50 µM. As to the method:
(§1) The human cell-lines triple negative breast adenocarcinoma MDA-MB-231, Pancreas adenocarcinoma PANC1, ductal breast carcinoma T-47D and fibroblasts were preserved and expanded in DMEM medium, while the prostate adenocarcinoma PC-3 cells were cultured in RPMI-1640 growth medium. All growth media were supplemented with 10% heat-inactivated fetal bovine serum (FBS). Cells were maintained under standard culture conditions at 37 °C, 5% CO2 in a humidified incubator. At 80% confluency, cells were washed with 5 mL phosphate buffer saline (1X PBS), then incubated for 4 min with 2–3 mL Trypsin-EDTA 0.25% in order to obtain suspended cells and collect them in a known volume of fresh media for cell count. Cells were counted using conventional hemocytometer and trypan blue dye method.
(§2) The five potent hits that have shown anti-Aurora-A Kinase inhibition percentages above 51% at 10 μM upon conducting the kinase enzyme Inhibition assay (Table 5) were further validated using MTT cytotoxicity Assay. This assay includes 3-(4,5-Dimethylthiazol-2-yl)-2,5-diphenyl tetrazolium bromide (MTT) dye, which is a yellowish tetrazole reduced by viable cells into formazan purple color, which detects the normal mitochondrial role in viable cells. In 96-well coated flat bottom microplates, 100 μL cell suspension of PANC1 or T-47D cells were seeded at a density of 7000 cell/well, and 6000 cell/well for MDA-MB-231, PC-3, or fibroblasts, and incubated under the same conditions at 37 °C. After 24 h, each well was treated with the intended drug concentration diluted in 200 μL fresh media after removal of the old 100-μL media. After 72 h incubation, drug-containing media was aspirated and on each well 100 μL phenol-red free media and 15-μL MTT solution (5 mg/mL (wt/vol) PBS). After 3 h of dark incubation at 37 °C, MTT and media were carefully withdrawn from each well, and 200 μL/well DMSO were added. Colorimetric absorbance (OD) was measured at 570 nm wavelength using 96-well plate reader (Tecan-Sunrise, Männedorf, Switzerland).
(§3) The five compounds were prepared in a stock concentrate of 10 mM using cell culture grade DMSO to be utilized in MTT assay. The cytotoxicity of each compound was initially screened on cancer cell-lines at two concentrations: 50 μM and 25 μM in duplicates. […] The safety index for the compounds with specified IC50 values was evaluated via determining their IC50 values against normal Fibroblast cells. It is noteworthy to mention that DMSO concentration was constant on all the wells (i.e., (0.5% v/v or 1 μL/200 μL) per well), for the treated and the control ones. IC50 values were calculated using nonlinear regression of the dose–response curves using GraphPad Prism software 7.03.

Another experiment has as its system Fibroblasts. In words: MTT cytotoxicity assay on normal fibroblasts (safety index). It counts as cell-based. The following applies: Homo sapiens, Fibroblast, 72 h. As to the method: as §1, §2, §3
For the next experiment, the system named is MDA-MB-231 cells. In words: MTT cytotoxicity/anti-proliferation assay, MDA-MB-231. In kind it is cell-based, human. The following applies: for IC50: MDA-MB-231, 72 h; for inhibition at 25 µM: MDA-MB-231, 25 µM; for inhibition at 25 µM / inhibition at 50 µM: 72 h; for inhibition at 50 µM: MDA-MB-231, 50 µM. Here is the method:
as §1, §2, §3

For the next experiment, the system named is T-47D cells. In words: MTT cytotoxicity/anti-proliferation assay, T-47D. It counts as cell-based. The following applies: Homo sapiens, T47D, 72 h. As to the method: as §1, §2, §3
The next experiment concerns PANC1 cells. In words: MTT cytotoxicity/anti-proliferation assay, PANC1. It counts as cell-based, human. The following applies: for IC50: Panc1, 72 h; for inhibition at 25 µM / inhibition at 50 µM: PANC-1, 72 h; for inhibition at 25 µM: Panc1, 25 µM; for inhibition at 50 µM: Panc1, 50 µM. Here is the method: as §1, §2, §3
In a further experiment the target is T1, Aurora-A kinase (Homo sapiens, UniProt O14965).
T1 construct: purchased Invitrogen (Carlsbad, CA, USA)
T1 sequence (O14965 1-403): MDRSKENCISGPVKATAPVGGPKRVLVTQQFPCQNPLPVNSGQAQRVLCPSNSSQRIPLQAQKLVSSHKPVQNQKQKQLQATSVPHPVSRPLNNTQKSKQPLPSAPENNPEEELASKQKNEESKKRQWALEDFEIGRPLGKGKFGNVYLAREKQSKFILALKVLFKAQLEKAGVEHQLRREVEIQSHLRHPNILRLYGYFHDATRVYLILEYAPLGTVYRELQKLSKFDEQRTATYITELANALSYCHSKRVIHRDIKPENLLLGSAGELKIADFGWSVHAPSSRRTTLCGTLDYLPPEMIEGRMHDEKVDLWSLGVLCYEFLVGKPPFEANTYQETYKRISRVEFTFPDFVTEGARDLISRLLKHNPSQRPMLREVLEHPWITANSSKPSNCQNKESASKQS
In words: FRET-based Z'-LYTE kinase enzyme inhibition assay. In kind it is biochemical. Conditions: for inhibition at 10 µM: read-out: % Inhibition at 10 µM; for IC50: nonlinear regression; for Hill Slope: dose-response curve, GraphPad Prism.

The subject of experiment [2] is PANC1, PC-3, T-47D and MDA-MB-231 cancer cells. In words: MTT anti-proliferative assay, four cancer cell lines together. In kind it is cell-based. Conditions: Homo sapiens; 72 h of incubation; read-out: IC50 values against PANC1, PC-3, T-47D and MDA-MB-231 (range over cell lines). As to the method:
The human cell-lines triple negative breast adenocarcinoma MDA-MB-231, Pancreas adenocarcinoma PANC1, ductal breast carcinoma T-47D and fibroblasts were preserved and expanded in DMEM medium, while the prostate adenocarcinoma PC-3 cells were cultured in RPMI-1640 growth medium. All growth media were supplemented with 10% heat-inactivated fetal bovine serum (FBS). Cells were maintained under standard culture conditions at 37 °C, 5% CO2 in a humidified incubator. […] Cells were counted using conventional hemocytometer and trypan blue dye method. […] In 96-well coated flat bottom microplates, 100 μL cell suspension of PANC1 or T-47D cells were seeded at a density of 7000 cell/well, and 6000 cell/well for MDA-MB-231, PC-3, or fibroblasts, and incubated under the same conditions at 37 °C. After 24 h, each well was treated with the intended drug concentration diluted in 200 μL fresh media after removal of the old 100-μL media. […] Colorimetric absorbance (OD) was measured at 570 nm wavelength using 96-well plate reader (Tecan-Sunrise, Männedorf, Switzerland). […] The safety index for the compounds with specified IC50 values was evaluated via determining their IC50 values against normal Fibroblast cells. […] IC50 values were calculated using nonlinear regression of the dose–response curves using GraphPad Prism software 7.03.
For orientation: Formazan colour is commonly taken as a measure of viable cells.

Values joined by “and” are separate entries in the source; they are usually repeats but may differ in a detail not shown here. Equal entries are not always repeated. Where two headings read alike, the source gives them in different places.

The IC50 is the point on the concentration scale where inhibition reaches its midpoint. The term inhibition denotes the relative decrease from the control value, in per cent.

Description for Aurora-A kinase: This bioassay was conducted using Z′-LYTE® kinase assay (Invitrogen, Carlsbad, CA, USA) [68, 69]. This biochemical assay depends on fluorescence emission as detection method utilizing a synthetic fluorescence resonance energy transfer (FRET) peptide with two fluorophores: coumarin that work as donor and fluorescein as acceptor [69]. Each hit or compound was dissolved in DMSO to form 10 mM stock solution. Hits were screened at 10 μM concentration. The bioassay was performed in black 384-well plate. For each assay, 100 nL of tested compound stock solution (10 mM) was mixed with 2.4 μL kinase buffer, 5 μL (peptide substrate/Aurora-A Kinase) mixture, and 2.5 μL ATP solution.
The tests were conducted in duplicates.

Take `Cc1cc(Nc2cc(N3CCN(C)CC3)nc(Sc3ccc(NC(=O)C4CC4)cc3)n2)[nH]n1` [Tozasertib/(VX-680), Tozasertib, reference compound]: the “reduced the tumor size” value in experiment [1] is given as 22–98%. Also, the IC50 is 21.4 ± 1.6 µM in the experiment with PC-3 cells; 9.2 ± 0.6 µM in the experiment with Fibroblasts; around 7.6 µM with MDA-MB-231 cells (Homo sapiens); 7.7 ± 0.65 µM in the experiment with MDA-MB-231 cells; 17.9 ± 1.64 µM in the experiment with T-47D cells; around 7.6 µM with PANC1 cells (Homo sapiens, PANC-1, 72 h). Besides, the inhibition at 25 µM is 49.5 ± 0.006% with PC-3 cells; 85 ± 0.006% with Fibroblasts; 81 ± 0.008% in the experiment with MDA-MB-231 cells (Homo sapiens); 53.4 ± 0.02% in the experiment with T-47D cells; 80.9 ± 0.005% in the experiment with PANC1 cells (Homo sapiens). Also, the inhibition at 50 µM was found to be 68.7 ± 0.011% in the experiment with PC-3 cells; 89 ± 0.005% in the experiment on Fibroblasts; 87 ± 0.007% in the experiment with MDA-MB-231 cells (Homo sapiens); 80.9 ± 0.01% in the experiment on T-47D cells; 89.3 ± 0.015% with PANC1 cells (Homo sapiens).

As for `COc1cc(/C=N/c2ccc3ccccc3c2)ccc1O` [Hit 112], the IC50 with PC-3 cells is above 50 µM; in the experiment on Fibroblasts it was 15.1 ± 3 µM; in the experiment with MDA-MB-231 cells (Homo sapiens), 17.9 ± 1.4 µM; in the experiment with T-47D cells it was above 50 µM; with PANC1 cells (Homo sapiens, PANC-1, 72 h), above 50 µM. The inhibition at 25 µM in the experiment on PC-3 cells stood at 19.2%; in the experiment with Fibroblasts, 53.9 ± 0.018%; in the experiment with MDA-MB-231 cells (Homo sapiens) it was 63.3 ± 0.021%; in the experiment with T-47D cells it was 34.7 ± 0.012%; with PANC1 cells (Homo sapiens) it was 16 ± 0.02%. The inhibition at 50 µM with PC-3 cells is 32.7%; in the experiment with Fibroblasts it was 54.3 ± 0.003%; in the experiment with MDA-MB-231 cells (Homo sapiens), 74.7 ± 0.012%; in the experiment with T-47D cells, 48.11 ± 0.003%; in the experiment with PANC1 cells (Homo sapiens), 22.5 ± 0.012%. Further, the inhibition at 10 µM at Aurora-A kinase (10 µM, duplicates, Z'-LYTE) amounted to 55%.

As to `COc1ccc(C(=O)C2=NON3O[C@@]23C(=O)c2ccc(OC)cc2)cc1` (stereo partly drawn) [Hit 85], the IC50 is 3.5 to 11 µM in experiment [2]; 8.2 ± 1.4 µM in the experiment with PC-3 cells; 27.5 ± 1.5 µM with Fibroblasts; 11 ± 0.43 µM with MDA-MB-231 cells (Homo sapiens); 8.8 ± 0.74 µM in the experiment on T-47D cells; 4.29 µM and 4.3 µM against Aurora-A kinase (IC50, 0.1–100 μM, duplicates). For the same compound, the IC50 was determined as 3.5 µM in the experiment with PANC1 cells (Homo sapiens, PANC-1, 72 h) and 3.54 ± 0.11 µM in the experiment on PANC1 cells. In addition, the inhibition at 25 µM in the experiment with PC-3 cells came out at 77 ± 0.007%; with Fibroblasts, 45.4 ± 0.05%; with MDA-MB-231 cells (Homo sapiens), 82.3 ± 0.006%; in the experiment with T-47D cells it was 84.6 ± 0.002%; with PANC1 cells (Homo sapiens), 92.97 ± 0.004%. Besides, the inhibition at 50 µM in the experiment with PC-3 cells came out at 87.3 ± 0.003%; with Fibroblasts, 83.4 ± 0.01%; in the experiment with MDA-MB-231 cells (Homo sapiens), 87.7 ± 0.001%; in the experiment on T-47D cells, 86 ± 0.002%; in the experiment with PANC1 cells (Homo sapiens) it was 94.1 ± 0.001%. Also, at Aurora-A kinase, the “Hill Slope” value is 1.70. Also, the inhibition at 10 µM on Aurora-A kinase was 56%.

For `Cc1cc(O)c(/N=N/c2ccc(C(=O)O)cc2)cc1C` [Hit 88], the IC50 was above 50 µM with MDA-MB-231 cells (Homo sapiens); above 50 µM with T-47D cells; 2.6 µM and 2.61 µM on Aurora-A kinase (0.1–100 μM, duplicates, read-out: IC50); above 50 µM in the experiment with PANC1 cells (Homo sapiens, PANC-1, 72 h). Besides, the inhibition at 25 µM was 21.1 ± 0.05% in the experiment with MDA-MB-231 cells (Homo sapiens), 26.5 ± 0.01% in the experiment on T-47D cells and 11.3 ± 0.01% with PANC1 cells (Homo sapiens). The inhibition at 50 µM is 31.3 ± 0.06% with MDA-MB-231 cells (Homo sapiens), 34.9 ± 0.013% with T-47D cells and 15.1 ± 0.006% with PANC1 cells (Homo sapiens). The inhibition at 10 µM at Aurora-A kinase (10 µM, duplicates, Z'-LYTE) was determined as 75%. Besides, the “Hill Slope” value at Aurora-A kinase amounted to 1.77.

Turning to `CCCC1N(Cc2ccc(OC)cc2)CCN1Cc1ccc(OC)cc1` [Hit 130], the IC50 was above 50 µM with MDA-MB-231 cells (Homo sapiens); above 50 µM with T-47D cells; 5.89 µM and 5.9 µM against Aurora-A kinase (IC50, 0.1–100 μM, duplicates); above 50 µM in the experiment on PANC1 cells (Homo sapiens, PANC-1, 72 h). Also, the inhibition at 25 µM is 22.9 ± 0.02% in the experiment on MDA-MB-231 cells (Homo sapiens), 25.5 ± 0.016% with T-47D cells and 20.3 ± 0.012% with PANC1 cells (Homo sapiens). Moreover, the inhibition at 50 µM was found to be 45.5 ± 0.05% in the experiment with MDA-MB-231 cells (Homo sapiens), 31.3 ± 0.008% in the experiment on T-47D cells and 34.9 ± 0.017% in the experiment with PANC1 cells (Homo sapiens). Further, on Aurora-A kinase, the “Hill Slope” value came to 7.6. Besides, the inhibition at 10 µM on Aurora-A kinase is 86%.

As to `O=C(O)c1ccc(Nc2ccnc3cc(Cl)ccc23)cc1O` [Hit 141], the IC50 with MDA-MB-231 cells (Homo sapiens) is above 50 µM; with T-47D cells, above 50 µM; in the experiment on PANC1 cells (Homo sapiens, PANC-1, 72 h), above 50 µM. Also, the inhibition at 25 µM in the experiment on MDA-MB-231 cells (Homo sapiens) worked out at 2.9 ± 0.03%; with T-47D cells, 21.11 ± 0.01%; in the experiment with PANC1 cells (Homo sapiens), 11.4 ± 0.003%. Also, the results for the inhibition at 50 µM in the experiment on MDA-MB-231 cells (Homo sapiens), in the experiment on T-47D cells and with PANC1 cells (Homo sapiens) were 11.1 ± 0.05%, 25.04 ± 0.02% and 15.7 ± 0.02%, respectively. Further, on Aurora-A kinase (10 µM, duplicates, Z'-LYTE), the inhibition at 10 µM was 51%.

These data come from publication PMC7766225, “Structure-Based Discovery and Bioactivity Evaluation of Novel Aurora-A Kinase Inhibitors as Anticancer Agents via Docking-Based Comparative Intermolecular Contacts Analysis (dbCICA)” (Molecules, 2020).
